From ChEMBL document CHEMBL4732172, “Discovery, semisynthesis and neurite outgrowth-promoting activity of novel merrillianone/cycloparviforalone based esters as neurotrophic agents” (Bioorg Med Chem Lett, 2021) come the findings set out here.

Data set [1] deals with PC-12. Description: Neurotrophic activity in rat PC-12 cells assessed as neurite outgrowth promoting activity in NGF-induced cells by measuring differentiation rate at 10 […] (reference value: 4.24 +/- 0.03 %). The class given is functional. Details: concentration or dose not given beside the values.
In data set [2] the test system is PC-12. Description: Neurotrophic activity in rat PC-12 cells assessed as neurite outgrowth promoting activity in NGF-induced cells by measuring differentiation rate at 10 […] relative to merrillianone. In kind it is functional.
The subject of data set [3] is PC-12. Kind of data set: Neurotrophic activity in rat PC-12 cells assessed as neurite outgrowth promoting activity in NGF-induced cells by measuring differentiation rate at 10 […] relative to cycloparviforalone. The class given is functional.
Data set [4] has as its system PC-12. Kind of data set: Induction of neurite outgrowth in NGF-induced rat PC-12 cells assessed as increase in average neurite length at 10 uM in presence of by methylene blue staining based light microscopy. In kind it is functional, cell-based.
The nature of data set [5]: Hydrolytic stability in phosphate buffer with pH 3.5 assessed as retention time measured after 6 hrs by HPLC analysis. The class given is physicochemical. The note with it: pH 3.5, 6 h.
Data set [6] can be described thus: Hydrolytic stability in phosphate buffer with pH 3.5 assessed as retention time measured after 2 hrs by HPLC analysis. The class given is physicochemical. Conditions: pH 3.5, 2 h.
Data set [7] can be described thus: Hydrolytic stability in phosphate buffer with pH 3.5 assessed as retention time measured after 4 hrs by HPLC analysis. The class given is physicochemical. Conditions: pH 3.5, 4 h.

The source made the active and inactive calls. The calls are words filed in the database; no cut-off is given here.

In the case of `C[C@@H]1CC[C@@]2(O)[C@]13C[C@@]1(OC(=O)Cc4ccc(Br)cc4)OC(OC[C@@]2(C)[C@@]1(C)O)[C@@H]3O`, in the data set on PC-12 [1], the Activity is listed as 6.12%. The same measure, in the same setting: next, `C[C@@H]1CC[C@@]2(O)[C@]13C[C@@]1(OC(=O)CCc4cccc(F)c4)OC(OC[C@@]2(C)[C@@]1(C)O)[C@@H]3O`: 6.35%; `C[C@@H]1CC[C@@]2(O)[C@]13C[C@@]1(OC(=O)CCC(=O)c4ccccc4)OC(OC[C@@]2(C)[C@@]1(C)O)[C@@H]3O`: 5.69%.

On to `C/C=C/C=C/C(=O)O[C@H]1C2OC[C@]3(C)C4=CC[C@@H](C)[C@@]41C[C@@](O)(O2)[C@]3(C)O`, for which the “fold change (FC)” value in the data set with PC-12 [2] and in the data set on PC-12 [3] was 2 throughout. For the same compound, the Activity in the data set with PC-12 [1] was found to be 11.11%. In addition, the result in the data set with PC-12 [4] was Active.

For the compound `C[C@@H]1CC=C2[C@]13C[C@@]1(O)OC(OC[C@@]2(C)[C@@]1(C)O)[C@@H]3OC(=O)CCc1ccc(Br)cc1`, the Activity in the data set on PC-12 [1] worked out at 6.03%.

Turning to `C[C@@H]1CC[C@@]2(O)[C@]13C[C@@]1(O)OC(OC[C@@]2(C)[C@@]1(C)O)[C@@H]3O`, the Activity in the data set with PC-12 [1] is on record as 5.75%.

`C[C@@H]1CC[C@@]2(O)[C@]13C[C@@]1(OC(=O)CCc4ccc(Cl)cc4)OC(OC[C@@]2(C)[C@@]1(C)O)[C@@H]3O`: in the data set on PC-12 [1], the Activity is reported as 5.87%.

For `C[C@@H]1CC[C@@]2(O)[C@]13C[C@@]1(OC(=O)CCc4cccc(Cl)c4)OC(OC[C@@]2(C)[C@@]1(C)O)[C@@H]3O`, in the data set with PC-12 [1], the Activity worked out at 4.57%. Consider `C[C@@H]1CC=C2[C@]13C[C@@]1(O)OC(OC[C@@]2(C)[C@@]1(C)O)[C@@H]3O`, for which, in the data set on PC-12 [1], the Activity amounted to 5.31%. For `C[C@@H]1CC[C@@]2(O)[C@]13C[C@@]1(OC(=O)CCc4cccc(Br)c4)OC(OC[C@@]2(C)[C@@]1(C)O)[C@@H]3O`, the Activity in the data set on PC-12 [1] is given as 5.26%.

As for `C[C@@H]1CC[C@@]2(O)[C@]13C[C@@]1(OC(=O)CCc4ccc(F)cc4)OC(OC[C@@]2(C)[C@@]1(C)O)[C@@H]3O`, the “fold change (FC)” value with PC-12 [2] and with PC-12 [3] was 2 each time. The Activity in the data set on PC-12 [1] is on record as 10.41%. For the same compound, the result in the data set with PC-12 [4] was Active. Consider `C[C@@H]1CC=C2[C@]13C[C@@]1(O)OC(OC[C@@]2(C)[C@@]1(C)O)[C@@H]3OC(=O)CCc1cccc(Cl)c1`, for which the Activity in the data set on PC-12 [1] was 5.6%. For the compound `C[C@@H]1CC[C@@]2(O)[C@]13C[C@@]1(OC(=O)/C=C/c4ccccc4)OC(OC[C@@]2(C)[C@@]1(C)O)[C@@H]3O`, the Activity in the data set on PC-12 [1] amounted to 5.03%. On the same count and under the same terms, next, `C[C@@H]1CC[C@@]2(O)[C@]13C[C@@]1(OC(=O)Cc4ccc(Cl)cc4)OC(OC[C@@]2(C)[C@@]1(C)O)[C@@H]3O`: 4.9%; `C[C@@H]1CC[C@@]2(O)[C@]13C[C@@]1(OC(=O)Cc4cccc(F)c4)OC(OC[C@@]2(C)[C@@]1(C)O)[C@@H]3O`: 6.52%; `C[C@@H]1CC[C@@]2(O)[C@]13C[C@@]1(OC(=O)Cc4cccc(Cl)c4)OC(OC[C@@]2(C)[C@@]1(C)O)[C@@H]3O`: 7.13%. Still for that read-out and setting: for `C[C@@H]1CC=C2[C@]13C[C@@]1(O)OC(OC[C@@]2(C)[C@@]1(C)O)[C@@H]3OC(=O)CCc1ccc(Cl)cc1` the value was 6.05%; for `C[C@@H]1CC=C2[C@]13C[C@@]1(O)OC(OC[C@@]2(C)[C@@]1(C)O)[C@@H]3OC(=O)CCc1cccc(F)c1`, 4.97%. As for `C/C=C/C=C/C(=O)O[C@]12C[C@]34[C@H](C)CC[C@]3(O)[C@@](C)(COC(O1)[C@@H]4O)[C@@]2(C)O`, the “fold change (FC)” value with PC-12 [2] and in the data set with PC-12 [3] was 2 throughout. Also, in the data set on PC-12 [1], the Activity is on record as 11.74%. The result in the data set with PC-12 [4] was Active. Consider `C[C@@H]1CC[C@@]2(O)[C@]13C[C@@]1(OC(=O)Cc4cccc(Br)c4)OC(OC[C@@]2(C)[C@@]1(C)O)[C@@H]3O`, for which the Activity with PC-12 [1] is 7.35%. On the same count and under the same terms, next, `C[C@@H]1CC=C2[C@]13C[C@@]1(O)OC(OC[C@@]2(C)[C@@]1(C)O)[C@@H]3OC(=O)CCC(=O)c1ccccc1`: 7.21%. For the compound `C[C@@H]1CC[C@@]2(O)[C@]13C[C@@]1(OC(=O)Cc4ccc(F)cc4)OC(OC[C@@]2(C)[C@@]1(C)O)[C@@H]3O`, in the data set on PC-12 [1], the Activity amounted to 5.74%. On the same count and under the same terms, for `C[C@@H]1CC=C2[C@]13C[C@@]1(O)OC(OC[C@@]2(C)[C@@]1(C)O)[C@@H]3OC(=O)CCc1ccccc1` the value was 5.81%. The same measure, in the same setting: next, `C[C@@H]1CC=C2[C@]13C[C@@]1(O)OC(OC[C@@]2(C)[C@@]1(C)O)[C@@H]3OC(=O)CCc1cccc(Br)c1`: 5.26%; `C[C@@H]1CC[C@@]2(O)[C@]13C[C@@]1(OC(=O)CCc4ccc(Br)cc4)OC(OC[C@@]2(C)[C@@]1(C)O)[C@@H]3O`: 6.15%. Still for that read-out and setting: next, `C[C@@H]1CC=C2[C@]13C[C@@]1(O)OC(OC[C@@]2(C)[C@@]1(C)O)[C@@H]3OC(=O)CCc1ccc(F)cc1`: 5.43%. For the compound `C[C@@H]1CC[C@@]2(O)[C@]13C[C@@]1(OC(=O)Cc4ccc5ccccc5c4)OC(OC[C@@]2(C)[C@@]1(C)O)[C@@H]3O`, the Retention_time in data set [5] is recorded as 16.154 min; in data set [6], 15.77 min; in data set [7], 15.97 min. The Activity in the data set with PC-12 [1] came to 4.76%.
